In patent US20250179032A1, “HETEROCYCLIC INHIBITORS OF GLUT9 FOR TREATMENT OF DISEASE” (HORIZON THERAPEUTICS IRELAND DAC, priority 2022, published 2025):

The compounds below were run against T1, H. sapiens SLC2A9 variant 2 (GLUT9B) (Homo sapiens, UniProt Q9NRM0) (assay: GLUT9 functional assay: uric acid uptake in HEK293T cells, allantoin formation by MS/MS as proxy of GLUT9B inhibition). Settings: 15 minute assay; HEK293T cells stably expressing GLUT9B and transiently A. oryzae uricase; uric acid 0.3 mM, 37° C.; read-out: 15 min IC50.
T1 sequence (Q9NRM0 1-511 isoform Q9NRM0-2): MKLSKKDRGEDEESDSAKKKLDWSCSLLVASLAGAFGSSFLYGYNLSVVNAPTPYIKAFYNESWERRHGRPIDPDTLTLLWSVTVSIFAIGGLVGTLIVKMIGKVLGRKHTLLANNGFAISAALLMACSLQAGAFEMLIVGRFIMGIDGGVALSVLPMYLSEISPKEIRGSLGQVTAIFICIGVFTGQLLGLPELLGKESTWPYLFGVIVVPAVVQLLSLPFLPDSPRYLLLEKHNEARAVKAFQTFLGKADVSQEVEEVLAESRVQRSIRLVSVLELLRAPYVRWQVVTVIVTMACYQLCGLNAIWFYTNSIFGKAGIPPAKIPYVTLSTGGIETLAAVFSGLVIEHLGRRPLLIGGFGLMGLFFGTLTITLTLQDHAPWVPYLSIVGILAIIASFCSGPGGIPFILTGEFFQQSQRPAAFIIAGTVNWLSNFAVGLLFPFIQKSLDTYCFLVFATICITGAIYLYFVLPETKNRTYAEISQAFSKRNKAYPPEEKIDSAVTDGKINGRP
Type: cell-based
Experimental: Uric acid stocks (9 mM, Millipore-Sigma, U0881) were generated in 125 mM choline chloride (Millipore-Sigma, C7017) and the concentration was determined at 293 nm using a molar extinction coefficient of 9600 M- ^1 cm- ^1) after collecting the absorbance spectra from 220-350 nm. Allantoin stocks (12 mM Toronto Research Chemicals, A540500) were generated in LCMS grade water (Thermo Scientific, 51140). The concentration of allantoin was determined by qNMR (Michigan State University). HEK293T cells were purchased from ATCC (HEK 293T/17 SF). Hanks buffered saline salts (HBSS) was purchased from Millipore-Sigma (H6648-1L).
SLC2A9 variant 2 was assayed in sodium gluconate buffer was composed of 125 mM sodium gluconate (TCI Chemicals, G0041-500G), 4.8 mM potassium gluconate (TCI Chemicals, G0040-500G), 1.2 mM calcium gluconate (TCI Chemicals, G0037-500G), 1.2 mM potassium phosphate (pH 7.4, Millipore-Sigma, 17835), 1.2 mM MgSO4, Millipore-Sigma, M2773-500G), 25 mM HEPES pH 7.3, (Millipore-Sigma, 54457). The final pH of the buffer was 7.4. Urate 1 was assayed in the same buffer save the pH was made to be 5.5 using 25 mM MES (pH 5.5) buffer vs 25 mM HEPES (pH 7.3) buffer.
Human untagged clone for (untagged)-human solute carrier family 2 member 9 (SLC2A9), transcript variant (SLC2A9/NM_001001290, FIG. 1 and FIG. 2; SEQ ID NOS: 3 and 4) was purchased from Origene (Cat #SC319239). SLC2A9 variant 2 (GLUT9B) gene was amplified by PCR using the following primer to allow for the introduction of EcoR1 and Not1 sites using the primers below.
HEK293T clonal stable cell lines containing the SLC2A9 variant 2 construct in the bicistronic pIRESpuro vector were generated using Viafect™ (Promega E4981) as per the manufactures instructions and puromycin selection (5 μg×mL^−1).
Uric acid uptake was measured in HEK293T cells stably expressing H. sapiens SLC2A9 variant 2 (GLUT9B) and transiently expressing A. oryzae uricase. Thus, decreased allantoin formation was used as a proxy of GLUT9B inhibition. Briefly, clonal cells were plated (53,000 cells/cm^2) in DMEM with 10% FBS. Twenty-four hours later, A. oryzae uricase was transfected, and assay conducted 3 days later across a 12-point curve in buffer (in mM: 125 sodium gluconate, 4.8 potassium gluconate, 1.2 calcium gluconate, 1.2 potassium phosphate, 1.2 magnesium sulfate4, 25 HEPES; pH 7.4) with uric acid at the GLUT9B Km (0.3 mM) for 15 min or for 60 min, at 37° C. Following wash (Hanks, 37° C.), plates were sealed, incubated (5 min, RT) and cells freeze-thawed prior to lysing in water and shaking (30 min RT). Lysates were filtered through PVDF and subjected to MSMS using a 10 mM ammonium acetate-based mobile phase on a porous graphitic carbon column. Allantoin was detected in positive ion mode. Desired analyte concentrations were quantitated by integrating the area under the curve followed by a log-logistic regression model and data compared to a standard curve prepared in a matching HEK293T biological matrix.
Mass spectrometry measurement of allantoin was completed using an Agilent RapidFire 300 coupled to a Sciex API 4000 mass spectrometer. The stationary phase was an Agilent cartridge D (hypercarb). Mobile phase A was 10 mM ammonium acetate. Mobile phase B was 5 mM ammonium acetate, 25% acetonitrile, 25% acetone. Allantoin was detected in positive ion mode with the following compound ID settings: Q1 159, Q3 115.8, DP 57, CE 12.5 Dwell 100 ms. The source settings were CAD 10, CUR 20, GS1 50, GS250 IS/NC: 5000, TEM 650, EP 10, CXP 10 where Q1 and Q3 resolution were set to low.
Data was quantitated using Area under the curve integration was performed with the RapidFire™ Integrator (Agilent Technologies) for the desired analytes. Quantitation was completed using in a using a log-logistic regression model using allantoin in matching HEK293T biological matrix.

Question: `CCCCc1cnc(-c2ccc(OC)cc2)c(N2CCN(CC(=O)O)CC2)n1` [Compound 1, 2-(4-(6-Butyl-3-(4-Methoxyphenyl)Pyrazin-2-yl)Piperazin-1-yl)Acetic Acid] was tested. Which IC50 did it give?
Answer: > 2000 nM

Question: Which IC50 does the source give for `CCCCc1cnc(-c2ccc(F)c(OC)c2)c(N2CCC(C(=O)O)CC2)n1` [Compound 2, 1-(6-Butyl-3-(4-Fluoro-3-Methoxyphenyl)Pyrazin-2-yl)Piperidine-4-carboxylic acid] here?
Answer: > 2000 nM

Question: For `CCCCc1cnc(-c2ccc(OC)cc2)c(N2CCC(C(=O)O)CC2)n1` [Compound 3, 1-(6-Butyl-3-(4-Methoxyphenyl)Pyrazin-2-yl)Piperidine-4-Carboxylic Acid], which IC50 is on record?
Answer: < 500 nM

Question: With `CCCCc1cnc(-c2ccc(OC)cc2)c(N2CC3C(C2)C3C(=O)O)n1` (centres unmarked) [Compound 4, 3-(6-Butyl-3-(4-Methoxyphenyl)Pyrazin-2-yl)-3-Azabicyclo[3.1.0]Hexane-6-carboxylic acid] as the compound, how does the IC50 read?
Answer: < 500 nM

Question: `CCCCc1cnc(-c2ccc3[nH]ccc3c2)c(N2CCC(C(=O)O)CC2)n1` [Compound 5, 1-(6-Butyl-3-(1H-Indol-5-yl)Pyrazin-2-yl)Piperidine-4-Carboxylic Acid] was tested. Which IC50 did it give?
Answer: > 2000 nM

Question: How did the IC50 turn out when `CCCCc1cnc(-c2ccc(OCCN(C)C)cc2)c(N2CCC(C(=O)O)CC2)n1` [Compound 6, 1-(6-Butyl-3-(4-(2-(Dimethylamino)Ethoxy)Phenyl)Pyrazin-2-yl)piperidine-4-carboxylic acid] was run?
Answer: > 2000 nM

Question: With `CCCCc1cnc(-c2ccc(S(C)(=O)=O)cc2)c(N2CCC(C(=O)O)CC2)n1` [Compound 7, 1-(6-Butyl-3-(4-(Methylsulfonyl)Phenyl)Pyrazin-2-yl)Piperidine-4-carboxylic acid] as the compound, how does the IC50 read?
Answer: 500 to 2000 nM

Question: Which IC50 does the source give for `CCCCc1cnc(-c2ccc(OC)cc2)c(N2CCC(S(C)(=O)=O)CC2)n1` [Compound 8, 5-Butyl-2-(4-Methoxyphenyl)-3-(4-(Methylsulfonyl)Piperidin-1-yl)pyrazine] here?
Answer: > 2000 nM

Question: For `CCCCc1cnc(-c2cc(F)c3occc3c2)c(N2CCC(C(=O)O)CC2)n1` [Compound 9, 1-(6-Butyl-3-(7-Fluorobenzofuran-5-yl)Pyrazin-2-yl)Piperidine-4-carboxylic acid], which IC50 is on record?
Answer: < 500 nM

Question: For `CCCCc1cnc(-c2ccc(OC)cc2)c(N2CCC(F)(C(=O)O)CC2)n1` [Compound 10, 1-(6-Butyl-3-(4-Methoxyphenyl)Pyrazin-2-yl)-4-Fluoropiperidine-4-carboxylic acid], which IC50 is on record?
Answer: < 500 nM

Question: How did the IC50 turn out when `CCCCc1cnc(-c2ccc(OC)cc2)c(N2CCC(C(=O)NS(C)(=O)=O)CC2)n1` [Compound 11, 1-(6-Butyl-3-(4-Methoxyphenyl)Pyrazin-2-yl)-N-(Methylsulfonyl)Piperidine-4-carboxamide] was run?
Answer: < 500 nM

Question: With `CCCCc1cnc(-c2ccc(OC)cc2)c(N2CCC(C(=O)O)C2)n1` (centres unmarked) [Compound 12, 1-(6-Butyl-3-(4-Methoxyphenyl)Pyrazin-2-yl)Pyrrolidine-3-Carboxylic acid] as the compound, how does the IC50 read?
Answer: > 2000 nM

Question: How did the IC50 turn out when `CCCCc1cnc(-c2ccc(OCCOC)cc2)c(N2CCC(C(=O)O)CC2)n1` [Compound 13, 1-(6-Butyl-3-(4-(2-Methoxyethoxy)Phenyl)Pyrazin-2-yl)Piperidine-4-carboxylic acid] was run?
Answer: < 500 nM

Question: With `CCCCc1cnc(-c2ccc(OC)cc2)c(N2CCC(C)(C(=O)O)CC2)n1` [Compound 14, 1-(6-Butyl-3-(4-Methoxyphenyl)Pyrazin-2-yl)-4-Methylpiperidine-4-carboxylic acid] as the compound, how does the IC50 read?
Answer: < 500 nM

Question: Which IC50 does the source give for `CCCCc1cnc(-c2ccc(OC)cc2)c(N2CCC(CC(=O)O)CC2)n1` [Compound 15, 2-(1-(6-Butyl-3-(4-Methoxyphenyl)Pyrazin-2-yl)Piperidin-4-yl)Acetic acid] here?
Answer: < 500 nM

Question: Which IC50 does the source give for `CCCCc1cnc(-c2ccc(OC)cc2)c(N2CCC(c3nn[nH]n3)CC2)n1` [Compound 16, 3-(4-(2H-Tetrazol-5-yl)Piperidin-1-yl)-5-Butyl-2-(4-methoxyphenyl)pyrazine] here?
Answer: < 500 nM

Question: How did the IC50 turn out when `CCCCc1cnc(-c2ccc3cc[nH]c3c2)c(N2CCC(C(=O)O)CC2)n1` [Compound 17, 1-(6-Butyl-3-(1H-Indol-6-yl)Pyrazin-2-yl)Piperidine-4-Carboxylic Acid] was run?
Answer: 500 to 2000 nM

Question: How did the IC50 turn out when `CCCCc1cnc(-c2ccc(OC)cc2)c(-c2ccc(C(=O)O)nc2)c1` [Compound 18, 5′-butyl-2′-(4-methoxyphenyl)-[3,3′-bipyridine]-6-carboxylic acid] was run?
Answer: > 2000 nM

Question: With `CCCCc1cnc(-c2ccc(OC)cc2)c(-c2csc(C(=O)O)c2)c1` [Compound 19, 4-(5-butyl-2-(4-methoxyphenyl)pyridin-3-yl)thiophene-2-carboxylic acid] as the compound, how does the IC50 read?
Answer: 500 to 2000 nM

Question: With `CCCCc1cnc(-c2ccc(OC)cc2)c(-c2csc(C(=O)O)n2)c1` [Compound 20, 4-(5-butyl-2-(4-methoxyphenyl)pyridin-3-yl)thiazole-2-carboxylic acid] as the compound, how does the IC50 read?
Answer: > 2000 nM

Question: For `CCCCc1cnc(-c2ccc(OC)cc2)c(-c2c[nH]c(C(=O)O)c2)c1` [Compound 21, 4-(5-butyl-2-(4-methoxyphenyl)pyridin-3-yl)-1H-pyrrole-2-carboxylic acid], which IC50 is on record?
Answer: > 2000 nM

Question: For `CCCCc1cnc(-c2ccc(OC)cc2)c(-c2coc(C(=O)O)c2)c1` [Compound 22, 4-(5-butyl-2-(4-methoxyphenyl)pyridin-3-yl)furan-2-carboxylic acid], which IC50 is on record?
Answer: > 2000 nM

Question: With `CCCCc1cnc(-c2ccc(OC)cc2)c(-c2cnc(C(=O)O)nc2)c1` [Compound 23, 5-(5-butyl-2-(4-methoxyphenyl)pyridin-3-yl)pyrimidine-2-carboxylic acid] as the compound, how does the IC50 read?
Answer: > 2000 nM

Same assay, conditions: 60 minute assay; HEK293T cells stably expressing GLUT9B and transiently A. oryzae uricase; uric acid 0.3 mM, 37° C.; read-out: 60 min IC50

Question: With `COCCCc1cnc(-c2ccc3occc3c2)c(N2CCC(C(=O)O)CC2C)n1` (racemic) [Compound 180, 1-(3-(benzofuran-5-yl)-6-(3-Methoxypropyl)Pyrazin-2-yl)-2-methylpiperidine-4-carboxylic acid] as the compound, how does the IC50 read?
Answer: < 500 nM

Question: `COCCCc1cnc(-c2cc(F)c3occc3c2)c(N2CC[C@@H](C(=O)O)C[C@@H]2C)n1` (single isomer, unassigned) [Compound 183] was tested. Which IC50 did it give?
Answer: < 500 nM

Question: How did the IC50 turn out when `COCCCc1cnc(-c2cc(F)c3occc3c2)c(N2CC[C@H](C(=O)O)C[C@@H]2C)n1` (single isomer, unassigned) [Compound 229] was run?
Answer: < 500 nM

Question: `COCCCc1cnc(-c2ccc3occc3c2)c(N2CCC[C@H](C(=O)O)C2)n1` (single isomer, unassigned) [Compound 235] was tested. Which IC50 did it give?
Answer: > 2000 nM

Question: How did the IC50 turn out when `COCCCc1cnc(-c2ccc3occc3c2)c(N2CCC[C@@H](C(=O)O)C2)n1` (single isomer, unassigned) [Compound 236] was run?
Answer: 500 to 2000 nM

Question: For `CCCCc1cnc(-c2ccc(OC)cc2)c(N2CCC(C(=O)O)CC2)n1` [Compound 3, 1-(6-Butyl-3-(4-Methoxyphenyl)Pyrazin-2-yl)Piperidine-4-Carboxylic Acid], which IC50 is on record?
Answer: < 500 nM
